Results on eight compounds are retold here after publication PMC8272561 (Bioorganic & medicinal chemistry letters, 2021).

Each structure is given as a SMILES string. Where two headings read alike, the source gives them in different places.

Assay [1] relates to FMV-infected BE(2)-C cells. The assay is described as follows: Antiviral assay in FMV-infected BE. The format is cell-based.
Assay [2] relates to WEEV genome replicon. As to conditions: read-out: IC50, inhibition of luciferase expression in WEEV replicon assay; cited from earlier work. For orientation: In antiviral work, replicon cells carry a viral genome segment that copies itself.
Assay [3] deals with WEEV genome replicon. The experiment in a line: organism not typed. The format is cell-based. As to conditions: for IC50: read-out: IC50, inhibition of luciferase expression in WEEV replicon assay.

For `O=C(NCCc1ccncc1)C1CCN(C(=O)c2cc3ccccc3n2Cc2ccc(Cl)cc2)CC1` [compound 2], in assay [1] (25 μM), the “Enhancement of infected cell viability” value is recorded as “two-fold enhancement”. For the same compound, in assay [2], the IC50 (commonly the concentration at which inhibition is half-maximal) is 0.53 ± 0.08 µM. In the case of `O=C(c1cc2ccccc2n1Cc1ccc(Cl)cc1)N1CCC(/C=C/CCc2ccncc2)CC1` [compound 17], in assay [3], the “Activity in WEEV replicon assay, in words” value is reported as “lost all activity” and the IC50 is above 50 µM. For `O=C(c1cc2ccccc2n1Cc1ccc(Cl)cc1)N1CCC(/C=C\CCc2ccncc2)CC1` [compound 18] the same measures were “lost all activity” and above 50 µM. Consider `O=C(NCCc1ccncc1)C1=CCN(C(=O)c2cc3ccccc3n2Cc2ccc(Cl)cc2)CC1` [compound 22], for which the “Loss of potency relative to lead 2 in WEEV replicon assay” value in assay [3] is recorded as around 10 fold. For the compound `CC1(C(=O)NCCc2ccncc2)CCN(C(=O)c2cc3ccccc3n2Cc2ccc(Cl)cc2)CC1` [compound 23], the “Activity in WEEV replicon assay, in words” value in assay [3] is “lost all activity”.

Regarding `O=C(NCCc1ccncc1)[C@H]1[C@@H]2CCN(C(=O)c3cc4ccccc4n3Cc3ccc(Cl)cc3)C[C@@H]21` [compound 26], the “Loss of potency relative to lead 2 in WEEV replicon assay” value in assay [3] was “over 20 fold”.

As for `O=C(NCCc1ccncc1)C1CC2(C1)CN(C(=O)c1cc3ccccc3n1Cc1ccc(Cl)cc1)C2` [compound 28], in assay [3], the “Loss of potency relative to lead 2 in WEEV replicon assay” value is reported as “over 20 fold”. With `O=C(NCCc1ccncc1)C1CCCN(C(=O)c2cc3ccccc3n2Cc2ccc(Cl)cc2)CC1` (centres unmarked) [compound 29], the “Improvement in infected cell viability versus negative control” value in assay [1] (5 μM) is “nearly two-fold improvement”.
